{"source": "paper PMC5218480", "about": "(PLoS ONE, 2017)", "test_system": "MV-4-11 cells", "assay": "Gene expression microarray analysis (Affymetrix PrimeView) and GSEA", "type": "cell-based, human", "set-up": "RFU PODN (11730768_x_at) / Fold change /veh PODN (11730768_x_at) / RFU LINC00158 (11744669_a_at) / Fold change /veh LINC00158 (11744669_a_at) / RFU DUSP10 (11751237_a_at) / Fold change /veh DUSP10 (11751237_a_at) / RFU ID3 (11757404_x_at) / Fold change /veh ID3 (11757404_x_at) / RFU PLEKHG5 (11737974_s_at) / Fold change /veh PLEKHG5 (11737974_s_at) / RFU LRRC4B (11730491_at) / Fold change /veh LRRC4B (11730491_at) / RFU GIMAP4 (11747438_a_at) / Fold change /veh GIMAP4 (11747438_a_at) / RFU KRT8 (11758183_x_at) / Fold change /veh KRT8 (11758183_x_at) / RFU CNN1 (11734310_a_at) / Fold change /veh CNN1 (11734310_a_at) / RFU VPS37D (11726825_at) / Fold change /veh VPS37D (11726825_at) / RFU C10orf10 (11716522_x_at) / Fold change /veh C10orf10 (11716522_x_at) / RFU KIR2DL2 /// KIR2DL4 /// KIR2DL5A /// KIR2DL5B /// KIR2DS1 /// KIR2DS2 /// KIR2DS3 /// KIR2DS4 /// KIR3DL3 /// KIR3DL3 /// KIR3DS1 (11738374_at) / Fold change /veh KIR2DL2 /// KIR2DL4 /// KIR2DL5A /// KIR2DL5B /// KIR2DS1 /// KIR2DS2 /// KIR2DS3 /// KIR2DS4 /// KIR3DL3 /// KIR3DL3 /// KIR3DS1 (11738374_at) / RFU C1QL1 (11718748_at) / Fold change /veh C1QL1 (11718748_at) / RFU TMPRSS4 (11747572_a_at) / Fold change /veh TMPRSS4 (11747572_a_at) / RFU HAMP (11756126_x_at) / Fold change /veh HAMP (11756126_x_at) / RFU RNFT2 (11725882_a_at) / Fold change /veh RNFT2 (11725882_a_at) / RFU NR4A2 (11747474_a_at) / Fold change /veh NR4A2 (11747474_a_at) / RFU ABCC12 (11746883_a_at) / Fold change /veh ABCC12 (11746883_a_at) / RFU TMEM136 (11760407_x_at) / Fold change /veh TMEM136 (11760407_x_at) / RFU CLDN22 /// WWC2 (11732394_at) / Fold change /veh CLDN22 /// WWC2 (11732394_at) / RFU HLA-DPB1 (11760878_x_at) / Fold change /veh HLA-DPB1 (11760878_x_at) / RFU SPINT1 (11716480_a_at) / Fold change /veh SPINT1 (11716480_a_at) / RFU GAP43 (11754022_s_at) / Fold change /veh GAP43 (11754022_s_at) / RFU A4GNT (11735810_at) / Fold change /veh A4GNT (11735810_at) / RFU PRB3 (11715151_x_at) / Fold change /veh PRB3 (11715151_x_at) / RFU TUBB4B (11761932_at) / Fold change /veh TUBB4B (11761932_at) / RFU CAPN14 (11732068_a_at) / Fold change /veh CAPN14 (11732068_a_at) / RFU TMCC2 (11721928_a_at) / Fold change /veh TMCC2 (11721928_a_at) / RFU IRGQ (11745062_a_at) / Fold change /veh IRGQ (11745062_a_at) / RFU FAM174B (11720279_a_at) / Fold change /veh FAM174B (11720279_a_at) / RFU TMPRSS4 (11748680_a_at) / Fold change /veh TMPRSS4 (11748680_a_at) / RFU FAM212B (11763350_a_at) / Fold change /veh FAM212B (11763350_a_at) / RFU PLEKHG5 (11743358_a_at) / Fold change /veh PLEKHG5 (11743358_a_at) / RFU ZSCAN30 (11745921_a_at) / Fold change /veh ZSCAN30 (11745921_a_at) / RFU CMKLR1 (11741424_a_at) / Fold change /veh CMKLR1 (11741424_a_at) / RFU LOC101060620 /// MAPK8IP1 (11723275_at) / Fold change /veh LOC101060620 /// MAPK8IP1 (11723275_at) / RFU SPTSSB (11747773_x_at) / Fold change /veh SPTSSB (11747773_x_at) / RFU PRSS12 (11739890_at) / Fold change /veh PRSS12 (11739890_at) / RFU BIN1 (11741810_x_at) / Fold change /veh BIN1 (11741810_x_at) / RFU WNT11 (11732464_a_at) / Fold change /veh WNT11 (11732464_a_at) / RFU C10orf10 (11716521_a_at) / Fold change /veh C10orf10 (11716521_a_at) / RFU C5orf56 (11738089_at) / Fold change /veh C5orf56 (11738089_at) / RFU CYB561 (11721691_x_at) / Fold change /veh CYB561 (11721691_x_at) / RFU ANKRD19P (11752326_a_at) / Fold change /veh ANKRD19P (11752326_a_at) / RFU OR2T12 /// OR2T33 /// OR2T8 (11738714_s_at) / Fold change /veh OR2T12 /// OR2T33 /// OR2T8 (11738714_s_at) / RFU VCAN (11748164_a_at) / Fold change /veh VCAN (11748164_a_at) / RFU JSRP1 (11732532_at) / Fold change /veh JSRP1 (11732532_at) / RFU KRTAP10-11 (11738290_x_at) / Fold change /veh KRTAP10-11 (11738290_x_at) / RFU MYO3A (11730013_a_at) / Fold change /veh MYO3A (11730013_a_at) / RFU EBF3 (11725865_a_at) / Fold change /veh EBF3 (11725865_a_at) / RFU CAMK2N1 (11719241_x_at) / Fold change /veh CAMK2N1 (11719241_x_at) / RFU C5orf56 (11738088_a_at) / Fold change /veh C5orf56 (11738088_a_at) / RFU OLFML3 (11715873_a_at) / Fold change /veh OLFML3 (11715873_a_at) / RFU LOC100653217 /// NTM (11731650_a_at) / Fold change /veh LOC100653217 /// NTM (11731650_a_at) / RFU MAPK11 (11762145_a_at) / Fold change /veh MAPK11 (11762145_a_at) / RFU FIZ1 (11724087_x_at) / Fold change /veh FIZ1 (11724087_x_at) / RFU OASL (11726364_x_at) / Fold change /veh OASL (11726364_x_at) / RFU SOX15 (11748057_x_at) / Fold change /veh SOX15 (11748057_x_at) / RFU CD79A (11719716_a_at) / Fold change /veh CD79A (11719716_a_at) / RFU HIST1H1D (11736915_at) / Fold change /veh HIST1H1D (11736915_at) / RFU CASKIN2 (11723855_a_at) / Fold change /veh CASKIN2 (11723855_a_at) / RFU LOC730098 (11760151_x_at) / Fold change /veh LOC730098 (11760151_x_at) / RFU OR4N2 (11742367_at) / Fold change /veh OR4N2 (11742367_at) / RFU PRRT2 (11749266_a_at) / Fold change /veh PRRT2 (11749266_a_at) / RFU SNX32 (11753110_a_at) / Fold change /veh SNX32 (11753110_a_at) / RFU CDHR5 (11726645_a_at) / Fold change /veh CDHR5 (11726645_a_at) / RFU RCAN1 (11760418_a_at) / Fold change /veh RCAN1 (11760418_a_at) / RFU FAM167A (11723789_a_at) / Fold change /veh FAM167A (11723789_a_at) / RFU FAM26E (11764081_at) / Fold change /veh FAM26E (11764081_at) / RFU ISYNA1 (11749810_s_at) / Fold change /veh ISYNA1 (11749810_s_at) / RFU ACY1 (11761880_at) / Fold change /veh ACY1 (11761880_at) / RFU 11764098_at / Fold change /veh 11764098_at / RFU SAMD14 (11745864_x_at) / Fold change /veh SAMD14 (11745864_x_at) / RFU NPB (11741838_a_at) / Fold change /veh NPB (11741838_a_at) / RFU TMPRSS6 (11731388_a_at) / Fold change /veh TMPRSS6 (11731388_a_at) / RFU KRTAP10-2 (11738614_at) / Fold change /veh KRTAP10-2 (11738614_at) / RFU ARHGAP8 /// PRR5-ARHGAP8 (11727945_x_at) / Fold change /veh ARHGAP8 /// PRR5-ARHGAP8 (11727945_x_at) / RFU KRTAP5-7 /// NADSYN1 (11734609_at) / Fold change /veh KRTAP5-7 /// NADSYN1 (11734609_at) / RFU RASL12 (11751679_a_at) / Fold change /veh RASL12 (11751679_a_at) / RFU CDKN2B (11736163_a_at) / Fold change /veh CDKN2B (11736163_a_at) / RFU PRF1 (11729649_at) / Fold change /veh PRF1 (11729649_at) / RFU, ZNF638 /// ZNF638-IT1 / Fold change vs veh, ZNF638 /// ZNF638-IT1 / RFU, PANK3 / Fold change vs veh, PANK3 / RFU, SH3YL1 / Fold change vs veh, SH3YL1 / RFU, ZEB2 / Fold change vs veh, ZEB2 / RFU, NRIP1 / Fold change vs veh, NRIP1 / RFU, PTTG1IP / Fold change vs veh, PTTG1IP / RFU, CAPN2 / Fold change vs veh, CAPN2 / RFU, MED14 / Fold change vs veh, MED14 / RFU, SNORA58 / Fold change vs veh, SNORA58 / RFU, C1orf63 / Fold change vs veh, C1orf63 / RFU, LRRFIP1 / Fold change vs veh, LRRFIP1 / RFU, NDUFAF7 / Fold change vs veh, NDUFAF7 / RFU, SLC12A2 / Fold change vs veh, SLC12A2 / RFU, IBTK / Fold change vs veh, IBTK / RFU, ESF1 / Fold change vs veh, ESF1 / Fold change vs veh, TMEM50B / RFU, TAOK1 / Fold change vs veh, TAOK1 / RFU, ACBD3 / Fold change vs veh, ACBD3 / RFU, TMA16 / Fold change vs veh, TMA16 / RFU, RWDD3 / Fold change vs veh, RWDD3 / RFU, BCAT1 / Fold change vs veh, BCAT1 / RFU, EDEM3 / Fold change vs veh, EDEM3 / RFU, TMEM33 / Fold change vs veh, TMEM33 / RFU, WDR75 / Fold change vs veh, WDR75 / RFU, AHCTF1 / Fold change vs veh, AHCTF1 / RFU, TFRC / Fold change vs veh, TFRC / RFU, ZDHHC17 / Fold change vs veh, ZDHHC17 / RFU, NOM1 / Fold change vs veh, NOM1 / RFU, ARL8B / Fold change vs veh, ARL8B / RFU, ZBTB11 / Fold change vs veh, ZBTB11 / RFU, TAMM41 / Fold change vs veh, TAMM41 / RFU, KIAA1704 /// LOC100996395 / Fold change vs veh, KIAA1704 /// LOC100996395 / RFU, ING1 / Fold change vs veh, ING1 / RFU, TRMT61B / Fold change vs veh, TRMT61B / RFU, FUBP3 / Fold change vs veh, FUBP3 / RFU, TP53 / Fold change vs veh, TP53 / RFU, TNKS2 / Fold change vs veh, TNKS2 / RFU, ZFP14 / Fold change vs veh, ZFP14 / RFU, ACTR2 / Fold change vs veh, ACTR2 / RFU, PPP3R1 / Fold change vs veh, PPP3R1 / RFU, PIK3R1 / Fold change vs veh, PIK3R1 / RFU, HNRNPA1 / Fold change vs veh, HNRNPA1 / RFU, RNF170 / Fold change vs veh, RNF170 / RFU, ZNF28 / Fold change vs veh, ZNF28 / RFU, RNGTT / Fold change vs veh, RNGTT / RFU, OGT / Fold change vs veh, OGT / RFU, BRD1 / Fold change vs veh, BRD1 / RFU, MARS / Fold change vs veh, MARS / RFU, ZNF655 / Fold change vs veh, ZNF655 / RFU, FAHD1 / Fold change vs veh, FAHD1 / RFU, BDP1 / Fold change vs veh, BDP1 / RFU, LRRCC1 / Fold change vs veh, LRRCC1 / RFU, ARID1A / Fold change vs veh, ARID1A / RFU, ZNF146 / Fold change vs veh, ZNF146 / RFU, ZNF330 / Fold change vs veh, ZNF330 / RFU, GPN3 / Fold change vs veh, GPN3 / RFU, C9orf123 / Fold change vs veh, C9orf123 / RFU, N4BP2L2 / Fold change vs veh, N4BP2L2 / RFU, ARFIP1 / Fold change vs veh, ARFIP1 / RFU, FAM179B / Fold change vs veh, FAM179B / RFU, BCL10 / Fold change vs veh, BCL10 / RFU, UHRF1BP1L / Fold change vs veh, UHRF1BP1L / RFU, BET1 / Fold change vs veh, BET1 / RFU, CNOT2 / Fold change vs veh, CNOT2 / RFU, ZNF268 / Fold change vs veh, ZNF268 / Fold change vs veh, ZNF507 / RFU, DGCR2 / Fold change vs veh, DGCR2 / RFU, WDSUB1 / Fold change vs veh, WDSUB1 / Fold change vs veh, HSP90B1 /// MIR3652 / RFU, ADSS / Fold change vs veh, ADSS / RFU, GK / Fold change vs veh, GK / RFU, ZNF148 / Fold change vs veh, ZNF148 / RFU, TAF9 / Fold change vs veh, TAF9 / RFU, SLC1A5 / Fold change vs veh, SLC1A5 / RFU, SLMO2 / Fold change vs veh, SLMO2 / RFU, ABCC4 / Fold change vs veh, ABCC4 / RFU, LOC101060439 /// RAP1B / Fold change vs veh, LOC101060439 /// RAP1B / RFU, RFX7 / Fold change vs veh, RFX7 / RFU, GTPBP10 / Fold change vs veh, GTPBP10 / RFU, CNEP1R1 / Fold change vs veh, CNEP1R1 / RFU, BIVM-ERCC5 /// ERCC5 / Fold change vs veh, BIVM-ERCC5 /// ERCC5 / RFU, ILF3 / Fold change vs veh, ILF3 / RFU 11762660_at / Fold change /veh 11762660_at / RFU VCAN (11757783_s_at) / Fold change /veh VCAN (11757783_s_at) / RFU DDX43 (11728927_at) / Fold change /veh DDX43 (11728927_at) / RFU KRT8 (11758188_x_at) / Fold change /veh KRT8 (11758188_x_at) / RFU NKD1 (11759106_at) / Fold change /veh NKD1 (11759106_at) / RFU SRD5A1 (11742802_a_at) / Fold change /veh SRD5A1 (11742802_a_at) / RFU TPSAB1 /// TPSB2 (11721975_s_at) / Fold change /veh TPSAB1 /// TPSB2 (11721975_s_at) / RFU GSTM3 (11746129_a_at) / Fold change /veh GSTM3 (11746129_a_at) / RFU IL23R (11737362_x_at) / Fold change /veh IL23R (11737362_x_at) / RFU TMEM51 (11727254_a_at) / Fold change /veh TMEM51 (11727254_a_at) / RFU PIWIL2 (11732686_x_at) / Fold change /veh PIWIL2 (11732686_x_at) / RFU ORM1 (11744905_x_at) / Fold change /veh ORM1 (11744905_x_at) / RFU CCDC152 (11743942_at) / Fold change /veh CCDC152 (11743942_at) / RFU ECM1 (11717891_a_at) / Fold change /veh ECM1 (11717891_a_at) / RFU IL23R (11748794_a_at) / Fold change /veh IL23R (11748794_a_at) / RFU TNFAIP8L3 (11732012_x_at) / Fold change /veh TNFAIP8L3 (11732012_x_at) / RFU MBOAT4 (11741988_at) / Fold change /veh MBOAT4 (11741988_at) / RFU 11764193_at / Fold change /veh 11764193_at / RFU TMEM53 (11763286_at) / Fold change /veh TMEM53 (11763286_at) / RFU MAGEB2 (11727129_at) / Fold change /veh MAGEB2 (11727129_at) / RFU TMEM200A (11744735_a_at) / Fold change /veh TMEM200A (11744735_a_at) / RFU CCDC152 (11751479_a_at) / Fold change /veh CCDC152 (11751479_a_at) / RFU FAM211A (11726209_a_at) / Fold change /veh FAM211A (11726209_a_at) / RFU RGS16 (11746705_a_at) / Fold change /veh RGS16 (11746705_a_at) / RFU VCAN (11755009_s_at) / Fold change /veh VCAN (11755009_s_at) / RFU RHOB (11743442_s_at) / Fold change /veh RHOB (11743442_s_at) / RFU RGS16 (11720943_a_at) / Fold change /veh RGS16 (11720943_a_at) / RFU RGS16 (11720944_at) / Fold change /veh RGS16 (11720944_at) / RFU, VPS4B / Fold change vs veh, VPS4B / RFU, CREB1 / Fold change vs veh, CREB1 / RFU, DNAJC13 / Fold change vs veh, DNAJC13 / RFU, GNAQ / Fold change vs veh, GNAQ / RFU, CDK5R1 / Fold change vs veh, CDK5R1 / RFU, ZRANB3 / Fold change vs veh, ZRANB3 / RFU, CUL4A / Fold change vs veh, CUL4A / RFU, CCNY / Fold change vs veh, CCNY / RFU, UFL1 / Fold change vs veh, UFL1 / RFU, COG3 / Fold change vs veh, COG3 / RFU, DIAPH2 / Fold change vs veh, DIAPH2 / RFU, SKA2 / Fold change vs veh, SKA2 / RFU, AFF3 / Fold change vs veh, AFF3 / RFU, LMF1 / Fold change vs veh, LMF1 / RFU, IPO11 / Fold change vs veh, IPO11 / RFU, DFFB / Fold change vs veh, DFFB / RFU, FOXP1 / Fold change vs veh, FOXP1 / RFU, CARD8 / Fold change vs veh, CARD8 / RFU, STRN3 / Fold change vs veh, STRN3 / RFU, ADK / Fold change vs veh, ADK / RFU, RASSF2 / Fold change vs veh, RASSF2 / RFU, WIPF1 / Fold change vs veh, WIPF1 / RFU, LARP1B / Fold change vs veh, LARP1B / RFU, RASA1 / Fold change vs veh, RASA1 / RFU, RB1 / Fold change vs veh, RB1 / RFU, PPFIA1 / Fold change vs veh, PPFIA1 / RFU, MAT2A / Fold change vs veh, MAT2A / RFU, CCT5 / Fold change vs veh, CCT5 / RFU, WDR92 / Fold change vs veh, WDR92 / RFU, CUX1 / Fold change vs veh, CUX1 / RFU, TTC7A / Fold change vs veh, TTC7A / RFU, TMEM135 / Fold change vs veh, TMEM135 / RFU, DEPTOR / Fold change vs veh, DEPTOR / RFU, CPM / Fold change vs veh, CPM / RFU, DNAJB6 / Fold change vs veh, DNAJB6 / RFU, CACNA2D3 / Fold change vs veh, CACNA2D3 / RFU, DTX4 / Fold change vs veh, DTX4 / RFU, TFCP2 / Fold change vs veh, TFCP2 / RFU, GMCL1 /// GMCL1P1 / Fold change vs veh, GMCL1 /// GMCL1P1 / RFU, AEBP2 / Fold change vs veh, AEBP2 / RFU, SNHG1 /// SNORD22 /// SNORD25 /// SNORD26 /// SNORD27 /// SNORD28 /// SNORD29 /// SNORD31 / Fold change vs veh, SNHG1 /// SNORD22 /// SNORD25 /// SNORD26 /// SNORD27 /// SNORD28 /// SNORD29 /// SNORD31 / Fold change (Aza/veh), C12orf56 (ProbeSet 11735607_a_at) / Fold change (ACY-1035/veh), C12orf56 (ProbeSet 11735607_a_at) / Fold change (Aza/veh), FGFR1OP (ProbeSet 11751329_s_at) / Fold change (ACY-1035/veh), FGFR1OP (ProbeSet 11751329_s_at) / Fold change (Aza/veh), VPS36 (ProbeSet 11739960_a_at) / Fold change (ACY-1035/veh), VPS36 (ProbeSet 11739960_a_at) / RFU SYPL1 (11715823_x_at) / Fold change /veh SYPL1 (11715823_x_at) / RFU IGFBP7 (11715501_s_at) / Fold change /veh IGFBP7 (11715501_s_at) / RFU REEP3 (11722064_at) / Fold change /veh REEP3 (11722064_at) / RFU IGLL1 (11728026_x_at) / Fold change /veh IGLL1 (11728026_x_at): dose or concentration left out as unconfirmed", "conditions": "MV-4-11 cells, 48 hours", "data": [{"smiles": "Nc1ncn([C@@H]2O[C@H](CO)[C@@H](O)[C@H]2O)c(=O)n1", "note": "[azacitidine]", "values": [{"measurement": "Fold change /veh RHOB (11743442_s_at)", "result": 1.27}]}]}
